The text below walks through data of US10513694B2, “Thienopyrrole compounds and uses thereof” (PROMEGA CORPORATION, priority 2015, dated 2019).

Where “and” joins values, the source holds several entries; their conditions need not be identical. Identical values can stand only once. Counter-ions that a name gives are not always drawn.

In the test the target is NANOLUC® enzyme (Oplophorus gracilirostris, UniProt Q9GV45, A31E/A60N/A81I/F95D/I117V/K70R/L54V/L99Q/M102K/N193R/P142E/Q151K/Q38R/Q45L/V71I/Y165I). In words: Inhibitor IC50 determination (NANOLUC enzyme, furimazine). It counts as biochemical. The note with it: IC50 (uM), 0.4 ng/ml NANOLUC enzyme, final furimazine 10 uM (at Km). As for the experimental part:
The following example provides the IC50 values for the compounds disclosed herein. See Table 5 NANOLUC® enzyme was diluted to 0.4 ng/ml in CO2 independent media+10% FBS to make the detection reagent. A 3× dilution series of each inhibitor was then made in the detection reagent. A “no inhibitor” control was also made for each sample. 50 ul of each inhibitor dilution was mixed with 50 ul of NanoGlo buffer containing 20 uM furimazine. (Final furimazine concentration is 10 uM which is at Km.), and luminescence measured. Each sample was normalized to the “no inhibitor” control. The […] values were then determined using GraphPad Prism (log [inhibitor] vs. normalized response).

Chain of NANOLUC® enzyme (Q9GV45 28-196 with tags or gaps with the stated changes limits assumed): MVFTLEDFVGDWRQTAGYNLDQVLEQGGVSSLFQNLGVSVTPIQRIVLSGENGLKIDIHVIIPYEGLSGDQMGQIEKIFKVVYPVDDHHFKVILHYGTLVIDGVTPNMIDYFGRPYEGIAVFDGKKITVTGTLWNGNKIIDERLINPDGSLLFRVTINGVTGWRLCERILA

The IC50 is the midpoint of a concentration-inhibition curve. A lower IC50 goes with higher potency. The molecule `CCN(C(=O)Cn1c(C(=O)N2CCCC2)cc2sccc21)c1cccc(C)c1` [JRW-0008, N-ethyl-2-(5-(pyrrolidine-1-carbonyl)-4H-thieno[3,2-b]pyrrol-4-yl)-N-(m-tolyl)acetamide] came in with an IC50 of 1.1 µM. In other words, the single-digit micromolar range.

As to `CCN(C(=O)Cn1c(C(=O)N2CCCCC2)cc2sccc21)c1cccc(C)c1` [JRW-0009, N-ethyl-2-(5-(piperidine-1-carbonyl)-4H-thieno[3,2-b]pyrrol-4-yl)-N-(m-tolyl)acetamide], inhibition was half-maximal at 2.7 µM (IC50).

Regarding `CCN(C(=O)Cn1c(C(=O)N[C@H]2CC[C@H](C(=O)O)CC2)cc2sccc21)c1cccc(C)c1` [JRW-0034, trans-4-(4-(2-(ethyl(m-tolyl)amino)-2-oxoethyl)-4H-thieno[3,2-b]pyrrole-5-carboxamido)cyclohexane-1-carboxylic acid], the IC50 worked out at 0.059 µM.

In turn, `CCN(C(=O)Cn1c(C(=O)N[C@H]2CC[C@@H](C(=O)OC)CC2)cc2sccc21)c1cccc(C)c1` [JRW-0041, methyl-cis-4-(4-(2-(ethyl(m-tolyl)amino)-2-oxoethyl)-4H-thieno[3,2-b]pyrrole-5-carboxamido)cyclohexane-1-carboxylate] showed an IC50 of 0.2 µM.

As for `CCN(C(=O)Cn1c(C(=O)N[C@H]2CC[C@H](C(=O)NCCO)CC2)cc2sccc21)c1cccc(C)c1` [JRW-0043, 4-(2-(ethyl(m-tolyl)amino)-2-oxoethyl)-N-(trans-4-((2-hydroxyethyl)carbamoyl)cyclohexyl)-4H-thieno[3,2-b]pyrrole-5-carboxamide], the IC50 was 0.84 µM.

Molecule `CCN(C(=O)Cn1c(C(=O)N[C@H]2CC[C@H](C(=O)NCCN(C)C)CC2)cc2sccc21)c1cccc(C)c1` [JRW-0044, N-(trans-4-((2-(dimethylamino)ethyl)carbamoyl)cyclohexyl)-4-(2-(ethyl(m-tolyl)amino)-2-oxoethyl)-4H-thieno[3,2-b]pyrrole-5-carboxamide] returned a concentration for half-maximal inhibition (IC50) of 16.8 µM.

`CCN(C(=O)Cn1c(C(=O)N[C@H]2CC[C@H](C(N)=O)CC2)cc2sccc21)c1cccc(C)c1` [JRW-0052, N-(trans-4-carbamoylcyclohexyl)-4-(2-(ethyl(m-tolyl)amino)-2-oxoethyl)-4H-thieno[3,2-b]pyrrole-5-carboxamide] had an IC50 of 1.3 µM.

Molecule `Cc1cccc(NC(=O)Cn2c(C(=O)NC3CCCCC3)cc3sccc32)c1` [JRW-0081, N-cyclohexyl-4-(2-oxo-2-(m-tolylamino)ethyl)-4H-thieno[3,2-b]pyrrole-5-carboxamide] had an IC50 of 19.4 µM.

`COCCOCCN(C(=O)Cn1c(C(=O)NC2CCCCC2)cc2sccc21)c1cccc(C)c1` [JRW-0109, N-cyclohexyl-4-(2-((2-(2-methoxyethoxy)ethyl)(m-tolyl)amino)-2-oxoethyl)-4H-thieno[3,2-b]pyrrole-5-carboxamide]: the IC50 stood at 10.1 µM.

As for `COCCOCCN(C(=O)Cn1c(C(=O)N[C@H]2CC[C@H](C(=O)OC)CC2)cc2sccc21)c1cccc(C)c1` [JRW-0110, Methyl-trans-4-(4-(2-((2-(2-methoxyethoxy)ethyl)(m-tolyl)amino)-2-oxoethyl)-4H-thieno[3,2-b]pyrrole-5-carboxamido)cyclohexane-1-carboxylate], it took 3 µM to reach half-maximal inhibition (IC50). Compared with the last molecule, the IC50 is about 3.4-fold lower.

Regarding `CCN(C(=O)Cn1c(C(=O)Nc2ccccc2)cc2sccc21)c1cccc(C)c1` [JRW-0143, 4-(2-(ethyl(m-tolyl)amino)-2-oxoethyl)-N-phenyl-4H-thieno[3,2-b]pyrrole-5-carboxamide], the IC50 is 2.8 µM and 2.6 µM.

Take `CCN(C(=O)Cn1c(C(=O)N[C@H]2CC[C@H](C(=O)NCCCCCC(=O)OC)CC2)cc2sccc21)c1cccc(C)c1` [JRW-0145, methyl 6-(trans-4-(4-(2-(ethyl(m-tolyl)amino)-2-oxoethyl)-4H-thieno[3,2-b]pyrrole-5-carboxamido)cyclohexane-1-carboxamido)hexanoate]: the IC50 worked out at 0.12 µM.

`CCCCCCN(C(=O)Cn1c(C(=O)NC2CCCCC2)cc2sccc21)c1cccc(C)c1` [JRW-0148, N-cyclohexyl-4-(2-(hexyl(m-tolyl)amino)-2-oxoethyl)-4H-thieno[3,2-b]pyrrole-5-carboxamide] yielded an IC50 of 5.3 µM.

With `CCCCCCN(C(=O)Cn1c(C(=O)N[C@H]2CC[C@H](C(=O)OC)CC2)cc2sccc21)c1cccc(C)c1` [JRW-0149, methyl-trans-4-(4-(2-(hexyl(m-tolyl)amino)-2-oxoethyl)-4H-thieno[3,2-b]pyrrole-5-carboxamido)cyclohexane-1-carboxylate], the midpoint of inhibition, the IC50, lay at 2.5 µM.

In turn, `CCN(C(=O)Cn1c(C(=O)Nc2cccc(C(=O)OC)c2)cc2sccc21)c1cccc(C)c1` [JRW-0151, methyl 3-(4-(2-(ethyl(m-tolyl)amino)-2-oxoethyl)-4H-thieno[3,2-b]pyrrole-5-carboxamido)benzoate] returned an IC50 of 7 µM.

As for `CCOC(=O)Cc1ccc(NC(=O)c2cc3sccc3n2CC(=O)N(CC)c2cccc(C)c2)cc1` [JRW-0152, ethyl 2-(4-(4-(2-(ethyl(m-tolyl)amino)-2-oxoethyl)-4H-thieno[3,2-b]pyrrole-5-carboxamido)phenyl)acetate], the IC50 was found to be 4.3 µM.

`CCN(C(=O)Cn1c(C(=O)N[C@H]2CC[C@H](C(=O)NCCCCCCCC(=O)O)CC2)cc2sccc21)c1cccc(C)c1` [JRW-0188, 8-(trans-4-(4-(2-(ethyl(m-tolyl)amino)-2-oxoethyl)-4H-thieno[3,2-b]pyrrole-5-carboxamido)cyclohexane-1-carboxamido)octanoic acid] came in with a 50% inhibitory concentration (IC50) of 0.022 µM.

`CCN(C(=O)Cn1c(C(=O)N[C@H]2CC[C@H](C(=O)NC3CCN(C(C)=O)CC3)CC2)cc2sccc21)c1cccc(C)c1` [JRW-0195, N-(trans-4-((1-acetylpiperidin-4-yl)carbamoyl)cyclohexyl)-4-(2-(ethyl(m-tolyl)amino)-2-oxoethyl)-4H-thieno[3,2-b]pyrrole-5-carboxamide] yielded an IC50 of 0.48 µM.

Molecule `CCN(C(=O)Cn1c(C(=O)NCCCCCCCC(=O)O)cc2sccc21)c1cccc(C)c1` [JRW-0198, 8-(4-(2-(ethyl(m-tolyl)amino)-2-oxoethyl)-4H-thieno[3,2-b]pyrrole-5-carboxamido)octanoic acid] showed an IC50 of 1 µM.

`CCN(C(=O)Cn1c(C(=O)NC2CCN(C(=O)CCCCC(=O)O)CC2)cc2sccc21)c1cccc(C)c1` [JRW-0208, 6-(4-(4-(2-(ethyl(m-tolyl)amino)-2-oxoethyl)-4H-thieno[3,2-b]pyrrole-5-carboxamido)piperidin-1-yl)-6-oxohexanoic acid] showed an IC50 of 0.82 µM.

As to `CCN(C(=O)Cn1c(C(=O)N[C@H]2CC[C@H](C(=O)NCCCCCCN)CC2)cc2sccc21)c1cccc(C)c1` [JRW-0241, N-(trans-4-((6-aminohexyl)carbamoyl)cyclohexyl)-4-(2-(ethyl(m-tolyl)amino)-2-oxoethyl)-4H-thieno[3,2-b]pyrrole-5-carboxamide hydrochloride], the IC50 was determined as 0.063 µM.

With `CCN(C(=O)Cn1c(C(=O)N[C@H]2CC[C@H](C(=O)NCCCCCCO)CC2)cc2sccc21)c1cccc(C)c1` [JRW-0242, 4-(2-(ethyl(m-tolyl)amino)-2-oxoethyl)-N-(trans-4-((6-hydroxyhexyl)carbamoyl)cyclohexyl)-4H-thieno[3,2-b]pyrrole-5-carboxamide], inhibition was half-maximal at 0.035 µM (IC50).

In turn, `CCN(C(=O)Cn1c(C(=O)N[C@H]2CC[C@H](C(=O)N[C@H]3CC[C@H](C(=O)OC)CC3)CC2)cc2sccc21)c1cccc(C)c1` [JRW-0243, methyl-trans-4-(trans-4-(4-(2-(ethyl(m-tolyl)amino)-2-oxoethyl)-4H-thieno[3,2-b]pyrrole-5-carboxamido)cyclohexane-1-carboxamido)cyclohexane-1-carboxylate] returned an IC50 of 0.21 µM. Compared with the last molecule, the IC50 is about 6-fold higher.

The molecule `CCN(C(=O)Cn1c(C(=O)N[C@H]2CC[C@@H](C(=O)NCCCCCC(=O)O)CC2)cc2sccc21)c1cccc(C)c1` [JRW-0264, 6-(cis-4-(4-(2-(ethyl(m-tolyl)amino)-2-oxoethyl)-4H-thieno[3,2-b]pyrrole-5-carboxamido)cyclohexane-1-carboxamido)hexanoic acid] displayed an IC50 of 0.24 µM.

For `CCN(C(=O)Cn1c(C(=O)NC[C@H]2CC[C@H](C(=O)NCCCCCC(=O)O)CC2)cc2sccc21)c1cccc(C)c1` [JRW-0268, 6-(trans-4-((4-(2-(ethyl(m-tolyl)amino)-2-oxoethyl)-4H-thieno[3,2-b]pyrrole-5-carboxamido)methyl)cyclohexane-1-carboxamido)hexanoic acid], the IC50 is 4.3 µM.

In turn, `CCN(C(=O)Cn1c(C(=O)N[C@H]2CC[C@H](C(=O)OC)CC2)cc2sccc21)c1ccccc1` [JRW-0318, Methyl trans-4-(4-(2-(ethyl(phenyl)amino)-2-oxoethyl)-4H-thieno[3,2-b]pyrrole-5-carboxamido)cyclohexane-1-carboxylate] had an IC50 of 0.11 µM.

In the case of `CCN(C(=O)Cn1c(C(=O)N[C@H]2CC[C@H](C(=O)OC)CC2)cc2sccc21)c1cccc(C#N)c1` [JRW-0321, Methyl trans-4-(4-(2-((3-cyanophenyl)(ethyl)amino)-2-oxoethyl)-4H-thieno[3,2-b]pyrrole-5-carboxamido)cyclohexane-1-carboxylate], the IC50 turned out to be 0.16 µM. This IC50 and that of the molecule before are within 1.5-fold of each other.

On to `CCN(C(=O)Cn1c(C(=O)N[C@H]2CC[C@H](C(=O)OC)CC2)cc2sccc21)c1cccc(C(N)=O)c1` [JRW-0322, Methyl trans-4-(4-(2-((3-carbamoylphenyl)(ethyl)amino)-2-oxoethyl)-4H-thieno[3,2-b]pyrrole-5-carboxamido)cyclohexane-1-carboxylate], for which the IC50 worked out at 0.2 µM.

Consider `CCc1cccc(N(CC)C(=O)Cn2c(C(=O)N[C@H]3CC[C@H](C(=O)OC)CC3)cc3sccc32)c1` [JRW-0326, Methyl trans-4-(4-(2-(ethyl(3-ethylphenyl)amino)-2-oxoethyl)-4H-thieno[3,2-b]pyrrole-5-carboxamido)cyclohexane-1-carboxylate], for which inhibition was half-maximal at 0.0039 µM (IC50). Against the preceding molecule, the IC50 is about 51-fold lower.
